In US20210121435A1, “METHODS FOR TREATING SEIZURES IN EPILEPSY WITH A COMPOSITION COMPRISING CANNABINOIDS” (MEDRELEAF CORP., priority 2019, published 2021):
Where two headings read alike, the source gives them in different places.

Columns and labels:
[1] = in vivo; cited from earlier work
[2] = Toxicity assessment of kindled rats before stimulation (Loscher ataxia scale); type: in vivo, rat; conditions: IP
Procedure: Before each round of drug testing stimulation, the rats were assessed for motor toxicity using the Loscher ataxia scale. This scale is used to determine motor impairment. The scale rankings are as follows: Stage 1—slight ataxia in hind legs, no decrease in abdominal muscle tone; Stage 2—more pronounced ataxia, slight decrease in abdominal muscle tone, flat body position; Stage 3—increased ataxia, continued decrease in abdominal muscle tone, more pronounced flat body posture, splayed hind legs, and crawling during forward motion; Stage 4—marked ataxia, loss of balance during forward motion, loss of abdominal muscle tone, flat body posture, splayed hind legs, and dragging during forward motion; Stage 5—very marked ataxia, frequent loss of balance during forward motion, loss of abdominal muscle tone.

[3] = system: Amygdala kindled rats (generalized and focal seizures); experiment: Seizure suppression in amygdala kindled rats; type: in vivo, rat; conditions: IP; for suppression of focal seizures: suppressed = absence of EEG seizure activity lasting more than 4 seconds, FIGS. 1B, 2B; for suppression of generalized seizures: suppressed = absence of stage 3 or higher seizure (Racine scale), FIGS. 1A, 2A
Procedure: Preclinical studies were performed to study the effects of CBD or THC alone, or CBD in combination with THC, on seizures. Amygdala kindled rats were used as a model for generalized and focal seizures in these studies.
Kindling Procedure: An insulated bipolar electrode was implanted in the right basolateral amygdala of male Sprague Dawley rats (50-55 days old). Two weeks following implantation, the rats began daily kindling. The stimulation used for kindling was a 1 second train of biphasic 60 Hz square wave pulses at an intensity of 400 micro-amps, once per day. Both the focal afterdischarge (AD) and convulsive behavior were monitored for a minimum of 30 seconds after stimulation or until an observed seizure ended. Rats were stimulated once daily until ten stage 5 Racine scale seizures have been generated, after which they are considered fully kindled (typically 3-4 weeks).
Seizure Scoring: The focal seizures were defined by observing the afterdischarge (AD) recorded by electroencephalogram (EEG) via the implanted electrode. The focal AD can last as long as 1-2 minutes post stimulation. The focal AD is not necessarily accompanied by a secondary generalized motor seizure, especially early in the kindling process. Early behavioural signs may include the cessation of behaviour or blinking. After sufficient kindling has been induced, generalized motor events of seizure generalization began to occur. These events were rated using the Racine scale. The stages are as follows: Stage 1—facial clonus; Stage 2—head nodding; Stage 3—forelimb clonus; Stage 4—forelimb clonus and rearing on hindlimbs; Stage 5—loss of postural control (rearing and following over).
Seizure Threshold Testing: Two days after the 10th stage 5 seizure was recorded, the animal's seizure threshold was tested using ascending series technique. The process was started at an intensity of 20 micro-amps, which was increased by 20 micro-amps every two minutes until an AD was produced. The seizure threshold is defined as the current needed to produce the AD.
Stability Testing: After seizure thresholds were determined, the animals underwent stability testing to confirm the reliability of the threshold. The animals were stimulated at 25% above the determined threshold 3 times per week for 2 weeks. If seizures were consistently evoked at this level of stimulation, the rat was considered stable. […]
The effects of: a) CBD alone (0, 20, 40, 80, 160, 320 mg/kg; 10 subjects per dose); b) THC alone (0, 5, 10, 20, 40, 80 mg/kg; 10 subjects per dose); or c) CBD+THC (15:1) (CBD dose of 0, 20, 40, 80, 160, 320 mg/kg; 10 subjects per dose), were tested. […] A generalized seizure was considered to be suppressed if there was an absence of stage 3 or higher seizure, assessed using the Racine scale. […]

seizures [4] = conditions: cited from earlier work; for median reduction (seizures): at 12 weeks
seizures [5] = conditions: of the 7 participants who received CBD; temporal-lobe epilepsy; cited from earlier work
convulsive seizures = conditions: participants with Dravet Syndrome and drug-resistant seizures; cited from earlier work
[6] = cited from earlier work
mice = conditions: intraperitoneally or orally; cited from earlier work
[7] = Pharmacokinetics of orally administered CBD; type: in vivo, human; conditions: oral; 4 to 5 times the half-life
From the text: The half-life of CBD, administered orally, may be about […]. A steady state is may be reached about 10 days after regular dosing begins (i.e., 4 to 5 times the half-life). As such, with a 4 week treatment period all patients may achieve a steady state of CBD blood concentration.

seizures [8] = conditions: after 3 months of treatment; TSC and treatment-resistant epilepsy; cited from earlier work

Structure (SMILES) | dose at which there may be psychotropic effects [1] [mg] | doses at which psychotoxicity was observed [2] | suppression of focal seizures [3] | suppression of generalized seizures [3] | median reduction (seizures) (seizures [4]; patients with DS) [%] | participants free of seizures in the last four weeks of treatment (seizures [4]; patients with DS) [participants] | median reduction (seizures) (seizures [4]; patients with LGS) [%] | participants free of seizures in the last four weeks of treatment (seizures [4]; patients with LGS) [participant] | participants seizure free during treatment (seizures [5]) | frequency of occurrence of convulsive seizures (convulsive seizures) | patients who became seizure free (convulsive seizures) | safety and tolerability in clinical trials ([6]; human, in vivo) | doses for which no significant adverse effects have been reported ([6]; p.o.) | dose-response of therapeutic benefits (anti-inflammatory and anti-nociceptive) (mice) | time to steady state after regular dosing begins [7] | doses with no observed toxic effects [2] | median percent change in total weekly seizure frequency (seizures [8]) [%]
CCCCCc1cc(O)c2c(c1)OC(C)(C)[C@@H]1CCC(C)=C[C@@H]21 [THC, Δ^9-tetrahydrocannabinol] | 10 | above 10 mg/kg | suppress some generalized and focal seizures | suppress some generalized and focal seizures | – | – | – | – | – | – | – | – | – | – | – | – | –
C=C(C)[C@@H]1CCC(C)=C[C@H]1c1c(O)cc(CCCCC)cc1O [CBD, cannabidiol] | – | – | suppress some generalized and focal seizures | suppress some generalized and focal seizures | 49.8 | 4 | 36.8 | 1 | 4 | significantly reduced | about 5% | safe and well tolerated across a wide dosage range | up to 1500 mg/day | bell-shaped dose-response | about 10 days | up to 320 mg/kg | −48.8
